Reference: patent publication US6903128B2, “Non-peptidyl inhibitors of VLA-4 dependent cell binding useful in treating inflammatory, autoimmune, and respiratory diseases” (Pfizer Inc, priority 1999, dated 2005)

melting point [°C]	SMILES
102 to 104	COc1cc(CC(=O)NC(CC(C)C)c2cc(CC(NC(=O)c3c(Cl)cccc3Cl)C(=O)O)on2)ccc1NC(=O)Nc1ccccc1C (centres unmarked) [Example 25, 2-(2,6-Dichloro-benzoylamino)-3-[3-(1-{2-[3-methoxy-4-(3-o-tolyl-ureido)-phenyl]-acetylamino}-3-methyl-butyl)-isoxazol-5-yl]-propionic acid]
123 to 125	COc1cc(CC(=O)NC(CC(C)C)c2cc(CC(NC(C)=O)C(=O)O)on2)ccc1NC(=O)Nc1ccccc1C (centres unmarked) [Example 27, 2-acetylamino-3-[3-(1-{2-[3-methoxy-4-(3-o-tolyl-ureido)-phenyl]-acetylamino}-3-methyl-butyl)-isoxazol-5-yl]-propionic acid]
